In ChEMBL document CHEMBL1201862, “PubChem BioAssay data set” (2004):
Several values for one entry are separate records, joined by “and”; a condition that tells them apart may be missing. Equal entries are not always repeated. Activity calls are given as the source filed them.

What was measured:
[1] = biological target: Cytochrome P450 2C9 (Homo sapiens, UniProt P11712)
[2] = biological target: Cytochrome P450 3A4 (Homo sapiens, UniProt P08684);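 further: CYP3A4 tested as one member of a cytochrome P450 panel screen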
[3] = test system: Streptococcus; assay: Group A Streptococcus viability loss, dose response, counter-screen for streptokinase expression inhibitor project, luminescence, BacTiterGlo (AID 1915); format: functional, organism-based;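 further: potency for reduction of bacterial viability or growth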
[4] = biological target: T1, Streptokinase A (Streptococcus pyogenes serotype M1, UniProt P10520); assay: S. pyogenes streptokinase expression inhibitors, potency, dose response, plasminogen activation absorbance, OD405 (AID 1914); format: functional, Streptococcus pyogenes M1 GAS;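 further: secreted streptokinase activity via plasminogen activation per viability signal from cell pellet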
T1 sequence (P10520 whole entry): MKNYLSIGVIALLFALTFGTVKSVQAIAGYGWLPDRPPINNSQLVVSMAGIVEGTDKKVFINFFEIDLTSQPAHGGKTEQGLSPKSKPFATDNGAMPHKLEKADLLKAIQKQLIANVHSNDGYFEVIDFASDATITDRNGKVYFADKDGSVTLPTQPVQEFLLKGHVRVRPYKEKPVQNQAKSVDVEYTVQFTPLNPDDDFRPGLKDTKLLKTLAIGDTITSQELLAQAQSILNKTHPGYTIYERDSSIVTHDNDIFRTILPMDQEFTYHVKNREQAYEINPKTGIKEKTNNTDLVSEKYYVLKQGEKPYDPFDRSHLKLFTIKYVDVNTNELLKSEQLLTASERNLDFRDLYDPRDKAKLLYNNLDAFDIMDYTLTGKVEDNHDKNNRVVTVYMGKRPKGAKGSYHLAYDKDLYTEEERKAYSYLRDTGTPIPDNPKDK

[5] = test system: Streptococcus sp. 'group A'; assay: growth inhibition of control SK(-) GAS strain, dose response, counter-screen for streptokinase expression inhibitor project, luminescence, kanamycin, BacTiterGlo, confirmation (AID 1900); format: functional, organism-based
[6] = inhibitors of intracellular T. cruzi replication, confirmation, NIH3T3 host cells, beta-gal luminescence (AID 2044); format: functional, cell-based;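 further: intracellular parasites grown in NIH/3T3 mouse fibroblasts as host cells; luminescent beta-galactosidase reporter signal from transgenic T. cruzi replicating inside host cells; inhibitors lower the luminescence signal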
[7] = cytotoxicity toward NIH3T3 fibroblasts, dose response, counter-screen, cell-based, ATP luminescence, mouse fibroblasts (AID 2010); format: functional;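 further: cells exposed to compound for about 90 hours before reading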
[8] = biological target: Cytochrome P450 2C19 (Homo sapiens, UniProt P33261); assay: Cytochrome panel assay with activity outcomes. Panel member name: p450-cyp2c19 Compounds with AC50 equal or less than 10 uM are considered active; format: functional
[9] = Luminescence Cell-Based Dose Response HTS to Identify Activators of Luciferase Translation or Activity in H4 […] Cells. [Related pubchem assays: 1829 (Project Summary), 1814 (Primary HTS)]; format: functional
[10] = test system: H4; assay: Luminescence Cell-Based Dose Response HTS to Identify Activators of 5'UTR Stem-Loop Driven Prion Protein mRNA Translation in H4 Neuroglioblastoma Cells. [Related pubchem assays: 1829 (Project Summary), 1814 (Primary HTS)]; format: functional; conditions: Homo sapiens
[11] = biological target: T2, Corticotropin-releasing factor receptor 2/Corticotropin-releasing factor-binding protein (Homo sapiens, UniProt P24387+Q13324); assay: activators of CRF receptor 2 with binding protein – uHTS hits, confirmation (AID 602473); format: functional; conditions: read-out: EC50_Mean
T2 sequence (Q13324 whole entry): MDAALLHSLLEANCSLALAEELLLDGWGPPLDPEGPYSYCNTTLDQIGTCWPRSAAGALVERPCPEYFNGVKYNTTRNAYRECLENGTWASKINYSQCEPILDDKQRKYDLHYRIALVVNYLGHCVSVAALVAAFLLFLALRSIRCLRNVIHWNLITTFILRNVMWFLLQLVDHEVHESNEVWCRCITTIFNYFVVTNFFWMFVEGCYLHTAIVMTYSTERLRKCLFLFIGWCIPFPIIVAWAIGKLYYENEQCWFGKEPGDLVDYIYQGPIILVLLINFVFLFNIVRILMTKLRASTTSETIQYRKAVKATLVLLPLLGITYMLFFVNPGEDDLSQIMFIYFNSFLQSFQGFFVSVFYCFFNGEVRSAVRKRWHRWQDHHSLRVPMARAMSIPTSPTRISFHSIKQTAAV
T2 sequence (P24387 whole entry): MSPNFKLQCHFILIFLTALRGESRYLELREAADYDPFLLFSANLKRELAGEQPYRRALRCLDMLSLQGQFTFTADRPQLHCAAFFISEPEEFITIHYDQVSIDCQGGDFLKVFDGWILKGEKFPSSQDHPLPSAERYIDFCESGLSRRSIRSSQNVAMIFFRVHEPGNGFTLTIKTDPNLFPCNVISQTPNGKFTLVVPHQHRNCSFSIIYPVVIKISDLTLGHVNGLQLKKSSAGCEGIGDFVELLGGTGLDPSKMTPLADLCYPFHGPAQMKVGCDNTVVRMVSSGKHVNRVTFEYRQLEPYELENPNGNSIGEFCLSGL

Cytochrome P450 3A4, sequence (P08684 whole entry): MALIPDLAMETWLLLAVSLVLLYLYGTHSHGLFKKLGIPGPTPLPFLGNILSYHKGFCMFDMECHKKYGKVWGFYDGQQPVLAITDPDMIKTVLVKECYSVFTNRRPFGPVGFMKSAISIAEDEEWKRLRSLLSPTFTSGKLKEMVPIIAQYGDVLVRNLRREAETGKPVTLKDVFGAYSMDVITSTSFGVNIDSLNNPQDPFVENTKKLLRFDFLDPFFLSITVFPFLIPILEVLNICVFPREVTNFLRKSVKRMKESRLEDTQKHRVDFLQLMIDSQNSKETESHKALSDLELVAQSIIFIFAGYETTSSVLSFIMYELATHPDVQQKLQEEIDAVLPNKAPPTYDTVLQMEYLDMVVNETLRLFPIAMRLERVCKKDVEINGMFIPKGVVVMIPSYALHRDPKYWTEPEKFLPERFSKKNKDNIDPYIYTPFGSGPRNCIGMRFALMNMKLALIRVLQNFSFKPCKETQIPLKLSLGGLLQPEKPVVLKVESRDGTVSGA
Cytochrome P450 2C19, sequence (P33261 whole entry): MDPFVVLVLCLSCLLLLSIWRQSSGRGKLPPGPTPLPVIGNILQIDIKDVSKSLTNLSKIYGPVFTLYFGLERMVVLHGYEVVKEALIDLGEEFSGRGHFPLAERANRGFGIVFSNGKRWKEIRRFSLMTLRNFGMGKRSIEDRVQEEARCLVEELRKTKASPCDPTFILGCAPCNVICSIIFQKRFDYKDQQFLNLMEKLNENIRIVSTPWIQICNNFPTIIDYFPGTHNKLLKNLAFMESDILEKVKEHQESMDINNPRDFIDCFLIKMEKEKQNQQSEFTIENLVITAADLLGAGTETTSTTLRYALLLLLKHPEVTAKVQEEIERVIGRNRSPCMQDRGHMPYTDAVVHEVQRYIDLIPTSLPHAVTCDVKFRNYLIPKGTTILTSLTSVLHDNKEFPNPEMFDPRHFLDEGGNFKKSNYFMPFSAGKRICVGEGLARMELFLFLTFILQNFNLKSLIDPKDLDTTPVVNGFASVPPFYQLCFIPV
Cytochrome P450 2C9, sequence (P11712 whole entry): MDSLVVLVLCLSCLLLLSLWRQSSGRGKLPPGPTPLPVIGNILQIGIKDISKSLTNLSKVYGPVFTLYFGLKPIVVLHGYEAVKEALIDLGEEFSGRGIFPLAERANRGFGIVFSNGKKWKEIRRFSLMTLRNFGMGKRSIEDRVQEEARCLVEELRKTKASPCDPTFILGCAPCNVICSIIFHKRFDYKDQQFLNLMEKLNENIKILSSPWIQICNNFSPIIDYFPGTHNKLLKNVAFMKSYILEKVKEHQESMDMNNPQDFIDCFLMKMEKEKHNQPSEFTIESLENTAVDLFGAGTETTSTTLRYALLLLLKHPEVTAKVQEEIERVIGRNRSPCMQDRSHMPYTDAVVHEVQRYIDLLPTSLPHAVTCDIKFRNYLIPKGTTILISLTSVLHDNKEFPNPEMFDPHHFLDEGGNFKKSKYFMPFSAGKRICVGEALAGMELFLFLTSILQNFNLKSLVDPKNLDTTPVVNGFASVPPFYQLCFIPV

O=C(Nc1cccc(-c2cnc3ccccc3n2)c1)c1ccc(Cl)cc1
AC50 [1]: 1.78 µM (inconclusive) | AC50 [2]: 3.55 µM (inconclusive)

CC(C)(C)c1cc(NCc2ccccn2)n2ncc(-c3ccc(Cl)cc3)c2n1
EC50 [3]: 3.1 µM (active) | EC50 [4]: > 150 µM (not active) | EC50 [5]: 2.44 µM (active)

CC(Oc1ccc(Cl)cc1Cl)C(=O)NC1=NN(c2ccccc2)C(=O)C1 (stereo unspecified)
EC50 [3]: 6.39 µM (active) | EC50 [4]: 123 µM (inconclusive) | EC50 [5]: 3.04 µM (active)

COc1ccccc1N(CC(O)Cn1c2ccccc2c2ccccc21)S(=O)(=O)c1ccccc1 (stereo unspecified)
EC50 [6]: 2.21 µM (active) | EC50 [7]: > 60 µM (not active)

CC(C)OCCCN1C(=O)c2ccccc2C1C(=O)NC1CCCCC1 (stereo unspecified)
AC50 ([8]; read-out: AC50): 35.5 µM (inconclusive) | AC50 [1]: 7.08 µM (inconclusive)

C=C1C(O)(c2ccccc2)C2CC[N+]1(C)CC2.[Cl-] (stereo unspecified)
AC50 [8]: inconclusive | AC50 [2]: 3.16 µM (inconclusive)

NC[C@H](O)c1cc(O)c(O)cc1F
AC50 [2]: 31.6 µM (inconclusive)

Cc1nc2ncnn2c(C)c1CCC(=O)Nc1ccc(S(=O)(=O)N2CCCCCC2)cc1
AC50 [2]: 39.8 µM (inconclusive)

COc1cc(-c2cc(-c3ccccc3)nc(SCC(=O)Nc3nccs3)c2C#N)cc(OC)c1OC
EC50 [6]: 1.72 µM (active) | EC50 [7]: > 30 µM (not active)

Cc1cc(C)c(C#N)c(SCC(=O)C(C)(C)C)n1
EC50 [6]: 1.96 µM (active) | EC50 [7]: > 60 µM (not active)

CCOC(=O)C1=C(c2ccccc2)Nc2ncnn2C1c1ccc(OC)c(OC)c1OC (stereo unspecified)
EC50 [6]: 1.84 µM (active) | EC50 [7]: > 60 µM (not active)

COc1ccc(-c2nc3cnc(OCc4ccccc4)nc3n(CCC#N)c2=O)cc1
AC50 [2]: 10 µM (inconclusive)

Cc1cccc(CN2CCN(CCCc3ccccc3)CC2)c1
EC50 [6]: 0.478 µM (active) | EC50 [7]: > 60 µM (not active)

c1ccc2sc(C3(N4CCCCC4)CCCCC3)cc2c1
AC50 [2]: 15.8 µM (inconclusive) and 25.1 µM (inconclusive)

COc1cccc(C2c3c(C)nn(-c4ccc([N+](=O)[O-])cc4)c3N=C3C(=O)Nc4ccccc4N32)c1 (stereo unspecified)
EC50 [6]: 1.87 µM (active) | EC50 [7]: > 60 µM (not active)

CC(C)(C)NC(=O)NC(=O)CSc1nnc2ccccn12
AC50 [1]: 17.8 µM (inconclusive)

Oc1c(N=NC(S)=Nc2ccccc2F)c2ccccc2n1Cc1ccc(Cl)cc1
EC50 [6]: 1.06 µM (active) | EC50 [7]: 5.85 µM (active)

COc1ccc([C@@H](Nc2ccccn2)c2cc(C(C)(C)C)cc(C(C)(C)C)c2O)cc1
AC50 [2]: 2 µM (inconclusive)

O=C(O)CNC1=NC2(CCCC2)Cc2ccccc21
AC50 [8]: inconclusive

CCCc1ccc2oc(C(=O)N3CCC[C@H]3CO)c(C)c2c1
EC50 [9]: 1.11 µM (active) | EC50 [10]: > 120 µM (not active)

CCCCCCNC=C1C(=O)N(C)C(=O)N(C)C1=O
AC50 ([8]; read-out: AC50): 15.8 µM (inconclusive) | AC50 [1]: 14.1 µM (inconclusive)

O=C(Cc1ccccc1)NC(=S)Nc1ccc2oc(-c3ccccc3F)nc2c1
EC50 [9]: 3.01 µM (active)

C/C(=N/O)c1ccc2cc(Br)c3ccccc3c2c1
AC50 ([8]; read-out: AC50): 1 µM (inconclusive)

CC12CS(=O)(=O)CC1SC(=S)N2c1ccccn1 (stereo unspecified)
AC50 [2]: 17.8 µM (inconclusive)

COc1ccccc1CCn1c(=O)c(C)nc2cncnc21
AC50 [1]: 31.6 µM (inconclusive)

CO[C@@H]1COC(=O)C/C=C\[C@@H](C)COC(=O)[C@H](COCc2ccccc2)NC(=O)C/C=C\[C@H]1C
AC50 [2]: 3.98 µM (inconclusive)

CCn1c(SCC(=O)NC2CCCc3ccccc32)nnc1-c1cccs1 (stereo unspecified)
AC50 [1]: 4.47 µM (inconclusive)

Cc1ccc2[nH]c(C(=O)N/N=C/c3ccccc3C(=O)O)c(-c3ccccc3)c2c1
EC50 [11]: 5.26 µM (active)

CC(NC(=O)C1(C)CC1(Br)Br)C(C)(C)C (stereo unspecified)
AC50 [2]: 14.1 µM (inconclusive)

Cc1ccc(NC(=O)NNS(=O)(=O)c2ccc(Br)cc2)cc1
AC50 [1]: 1 µM (inconclusive)

C[C@@H](C(=O)NC1CCN(Cc2ccccc2)CC1)N1C(=O)N2CCc3c([nH]c4ccccc34)[C@@]2(C)C1=O
EC50 [6]: 0.299 µM (active) | EC50 [7]: > 60 µM (not active)

Fc1ccc(COc2cccc(CNCc3ccncc3)c2)cc1
EC50 [6]: 6.99 µM (active) | EC50 [7]: > 60 µM (not active)

O=c1c(-c2ccc(F)cc2)nc2cnc(N3CCNCC3)nc2n1-c1ccccc1
AC50 [8]: inconclusive | AC50 [2]: 25.1 µM (inconclusive)

CCOC(=O)c1cc2c(=O)n3ccccc3nc2n(CCCOC)/c1=N\C(C)=O
AC50 [1]: 20 µM (inconclusive)

O=C(Nc1nc(-c2ccccc2)cs1)C1CCCN(S(=O)(=O)c2cccc([N+](=O)[O-])c2)C1 (stereo unspecified)
EC50 [6]: 0.173 µM (active) | EC50 [7]: > 60 µM (not active)

Nc1nc(-c2cccs2)cs1
AC50 ([8]; read-out: AC50): 3.98 µM (inconclusive) and 39.8 µM (inconclusive) | AC50 [2]: 3.98 µM (inconclusive) and 25.1 µM (inconclusive)

Cc1cccc(N(CC(=O)NCCSCc2ccco2)S(=O)(=O)c2ccccc2)c1
AC50 [2]: 3.55 µM (inconclusive)

Cc1cc(C)c2cc(CN(Cc3cccnc3)C(=O)c3ccc(F)cc3)c(Cl)nc2c1
EC50 [6]: 1.08 µM (active) | EC50 [7]: 5.07 µM (active)

COc1ccc(-c2csc3ncnc(N4CCN(S(=O)(=O)c5cccc(Br)c5)CC4)c23)cc1
EC50 [6]: 1.71 µM (active) | EC50 [7]: > 60 µM (not active)

CCOc1ccc(CNC(=O)C2CC(=O)N(C3CCCC3)C2)cc1OC (stereo unspecified)
AC50 ([8]; read-out: AC50): 39.8 µM (inconclusive) | AC50 [2]: 25.1 µM (inconclusive)

COc1ccc(/C=C/c2ccc3cccc(O)c3n2)c(OC)c1OC
EC50 [3]: 6.25 µM (active) | EC50 [5]: 4.85 µM (active)

CCC1=NN(C(=O)CCc2ccccc2)C(O)(C(F)(F)F)C1 (stereo unspecified)
AC50 [2]: 15.8 µM (inconclusive)

O=c1c(-c2ccccc2)nc2cncnc2n1Cc1ccccc1Cl
AC50 ([8]; read-out: AC50): 7.94 µM (inconclusive) | AC50 [1]: 3.16 µM (inconclusive)

COc1ccccc1-c1nc(NCc2cccs2)c2ccccc2n1
AC50 ([8]; read-out: AC50): 20 µM (inconclusive)

Cc1ccccc1/C=N\NC(=O)c1csnn1
AC50 ([8]; read-out: AC50): 11.2 µM (inconclusive)

CC(C)(C)CC(=O)NC(=S)Nc1ccccc1C(F)(F)F
AC50 [2]: 22.4 µM (inconclusive)

COc1ccc([C@H]2/C=C\CN(S(=O)(=O)c3ccc4ccccc4c3)[C@@H](C)C(=O)N2Cc2ccc(F)cc2)cc1
EC50 [6]: 2.03 µM (active) | EC50 [7]: > 60 µM (not active)

CN(C)CCn1c(=O)n(Cc2ccco2)c(=O)c2c3c(sc21)CCCCC3
AC50 [2]: 12.6 µM (inconclusive) | EC50 [6]: 0.196 µM (active) | EC50 [7]: > 60 µM (not active)

c1ccc(CCn2nnnc2C(c2cccnc2)N2CCN(c3nc4ccccc4s3)CC2)cc1 (stereo unspecified)
EC50 [6]: 0.244 µM (active) | EC50 [7]: 31.2 µM (active)

COc1ccc(-c2nnc3n2N=C(C)CS3)cc1
AC50 ([8]; read-out: AC50): 25.1 µM (inconclusive) | AC50 [1]: 20 µM (inconclusive)

COc1ccc(CCn2c(-c3cc([N+](=O)[O-])cc([N+](=O)[O-])c3)nc3nc4ccccc4nc32)cc1
EC50 [6]: 0.157 µM (active) | EC50 [7]: > 60 µM (not active)

O=C(Nc1ccc(N2CCOCC2)c(Cl)c1)c1ccc(Br)o1
EC50 [9]: 0.113 µM (active)

COc1ccc(C(C(=O)NC2CCCC2)N(C(=O)c2snc(-c3ccc(F)cc3)c2N)c2ccccc2)cc1 (stereo unspecified)
AC50 [1]: 0.891 µM (inconclusive)

CCOc1cc(/C=C2\N=C(C)OC2=O)cc(Br)c1OCC(=O)OC
AC50 [1]: 25.1 µM (inconclusive)
